Measured values: patent US20190315823A1, “SMALL CATIONIC ANTI-BIOFILM AND IDR PEPTIDES” (priority 2013, published 2019)
Peptide text beside a SMILES is read from it.

Assays:
Assay type in all cases: cell-based
[1] = test system: human peripheral blood mononuclear cells (MCP-1); experiment: SPOT-synthesized derivative screen: production of chemokine MCP-1; details: Table 12A, No LPS; for MCP1: background subtracted (21.3 pg/ml)
Summary of the method: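 PBMC from heparinized healthy-donor venous blood, Ficoll-separated, cultured at 0.75 to 1×10^6 cells/ml, 37 °C, 5% CO2, under the treatment regimens. MCP-1 in cell-free supernatants measured by capture ELISA.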

[2] = test system: LPS-stimulated human peripheral blood mononuclear cells (IL1-β); details: Table 12A, cells stimulated with 10 ng/ml LPS; for Fold change in IL1β relative to no peptide LPS stimulated cells: 1002-2013 compared to LPS control of 889 pg/ml; for IL1β Production: LPS alone 984 pg/ml, starred values (1002-2013) determined separately, LPS alone 889 pg/ml
[3] = test system: P. aeruginosa biofilm; details: concentration that reduced biofilm growth by 50%
Protocol: (§1) Methods of assessment of anti-biofilm activity—Biofilm formation was initially analyzed using a static abiotic solid surface assay as described elsewhere (de la Fuente-Nunez et al., 2012). […] Planktonic cells were removed, biofilm cells adhering to the side of the tubes were stained with crystal violet, and absorbance at 595 nm was measured using a microtiter plate reader (Bio-Tek Instruments Inc., United States). Some peptides were screened against two Gram negative organisms, P. aeruginosa and K. pneumoniae using a Bioflux apparatus (AutoMate Scientific, Berkeley, Calif.; http://www.autom8.com/bioflux_biofilm.html), which allows for the high-throughput, real-time analysis of biofilms.

[4] = test system: S. aureus biofilm; details: concentration that reduced biofilm growth by 50%
Protocol: as §1

Structure (SMILES): CC[C@H](C)[C@H](NC(=O)[C@H](CCCNC(=N)N)NC(=O)[C@@H](NC(=O)[C@H](CCCCN)NC(=O)[C@@H](NC(=O)[C@@H](NC(=O)[C@@H](NC(=O)[C@H](CCCNC(=N)N)NC(=O)[C@@H](N)C(C)C)C(C)C)[C@@H](C)CC)C(C)C)C(C)C)C(=O)N[C@@H](CCCNC(=N)N)C(=O)N[C@@H](CCCNC(=N)N)C(=O)N[C@@H](CCCNC(=N)N)C(N)=O [Peptide 2004] (H-VRVIVKVRIRRR-NH2; N-terminus assumed)
- Fold increase in MCP1 cf. untreated cells [1]: 340
- MCP1 [1]: 7226 pg/mL
- Fold change in IL1β relative to no peptide LPS stimulated cells [2]: 0.56
- IL1β Production [2]: 549 pg/mL
- MBIC50 P. aeruginosa [3]: 2.5 µg/mL
- MBIC50 S. aureus [4]: 20 µg/mL

Structure (SMILES): CC[C@H](C)[C@H](NC(=O)[C@H](CCCNC(=N)N)NC(=O)[C@@H](NC(=O)[C@H](C)NC(=O)[C@@H](NC(=O)[C@@H](NC(=O)[C@H](CC(C)C)NC(=O)[C@H](CCCNC(=N)N)NC(=O)[C@@H](N)C(C)C)[C@@H](C)CC)C(C)C)C(C)C)C(=O)N[C@@H](CCCNC(=N)N)C(=O)N[C@@H](CCCNC(=N)N)C(=O)N[C@@H](CCCNC(=N)N)C(N)=O [Peptide 2002] (H-VRLIVAVRIRRR-NH2; N-terminus assumed)
- Fold increase in MCP1 cf. untreated cells [1]: 152
- MCP1 [1]: 3215 pg/mL
- Fold change in IL1β relative to no peptide LPS stimulated cells [2]: 0.30
- IL1β Production [2]: 293 pg/mL
- MBIC50 P. aeruginosa [3]: 2.5 µg/mL
- MBIC50 S. aureus [4]: 20 µg/mL

Structure (SMILES): CC[C@H](C)[C@H](NC(=O)[C@H](CCCNC(=N)N)NC(=O)[C@@H](NC(=O)[C@H](CCCNC(=N)N)NC(=O)[C@@H](NC(=O)[C@@H](NC(=O)[C@H](CC(C)C)NC(=O)[C@H](CCCNC(=N)N)NC(=O)[C@@H](N)C(C)C)[C@@H](C)CC)C(C)C)C(C)C)C(=O)N[C@@H](Cc1c[nH]c2ccccc12)C(=O)N[C@@H](CCCNC(=N)N)C(=O)N[C@@H](CCCNC(=N)N)C(N)=O [Peptide 2005] (H-VRLIVRVRIWRR-NH2; N-terminus assumed)
- Fold increase in MCP1 cf. untreated cells [1]: 837
- MCP1 [1]: 17826 pg/mL
- Fold change in IL1β relative to no peptide LPS stimulated cells [2]: 0.10
- IL1β Production [2]: 101 pg/mL
- MBIC50 P. aeruginosa [3]: 2.5 µg/mL
- MBIC50 S. aureus [4]: 10 µg/mL

Structure (SMILES): CC[C@H](C)[C@H](NC(=O)[C@H](CCCNC(=N)N)NC(=O)[C@@H](NC(=O)[C@H](CCCCN)NC(=O)[C@@H](NC(=O)[C@@H](NC(=O)[C@H](CC(C)C)NC(=O)[C@H](CCCNC(=N)N)NC(=O)[C@@H](N)C(C)C)[C@@H](C)CC)C(C)C)C(C)C)C(=O)N[C@@H](CCCNC(=N)N)C(=O)N[C@@H](CCCNC(=N)N)C(=O)N[C@@H](CCCNC(=N)N)C(N)=O [Peptide 2003] (H-VRLIVKVRIRRR-NH2; N-terminus assumed)
- Fold increase in MCP1 cf. untreated cells [1]: 509
- MCP1 [1]: 10848 pg/mL
- Fold change in IL1β relative to no peptide LPS stimulated cells [2]: 1.07
- IL1β Production [2]: 1051 pg/mL
- MBIC50 P. aeruginosa [3]: 2.5 µg/mL
- MBIC50 S. aureus [4]: 20 µg/mL
